Data as given in US7544676B2, “Sulfamoyl benzamides and methods of their use” (Adolor Corporation, priority 2005, dated 2009).

Key:
CB1 receptor [1] = biological target: T1, CB1 receptor (Homo sapiens, UniProt P21554); experiment: Inhibition of [3H]CP55940 binding to cloned human CB1 receptor membranes
T1 construct: expressed in transfected cells; host or cells: CHO-K1
Protocol: (§1) Ki values in receptor binding experiments were determined by Cheng-Prusoff correction of IC50 values derived from automated nonlinear regression analysis of sigmoidal titration curves using a three-parameter modification (slope set to 1.0) of the four-parameter equation described in Cheng, Y.-C. and W. H. Prusoff, Biochem. Pharmacol. 22:3099-3108 (1973) and DeLean et al., Am. J. Physiol. 235:E97-E102 (1978).
(§2) Chinese hamster ovary cells (CHO-K1), stably transfected with either hCB1 or hCB2, were washed two times with cold PBS, scraped from 500 cm^2 tissue culture plates, and pelleted by centrifugation at 1000×g for 10 min. […]
(§3) Binding assays were performed by incubating 0.2-0.6 nM (34,000-100,000 dpm) [^3H]CP55940 with membranes prepared from cells expressing cloned human CB1 or CB2 receptors in buffer A (50 mM Tris HCl, pH 7.0, 5.0 mM MgCl2, 1.0 mM EGTA and 1.0 mg/mL fatty acid free bovine serum albumin). […] The filters were rinsed 6 times with one mL of cold wash buffer (50 mM Tris HCl, pH 7.0, 5.0 mM MgCl2, 1.0 mM EGTA and 0.75 mg/mL fatty acid free bovine serum albumin), 30 μL of MicroScint 20 was added to each filter and the radioactivity on the filters determined by scintillation spectroscopy. Nonspecific binding was determined in the presence of 10 μM WIN55212-2.

CB2 receptor [2] = biological target: T2, CB2 receptor (Homo sapiens, UniProt P34972); experiment: Inhibition of [3H]CP55940 binding to cloned human CB2 receptor membranes
T2 construct: expressed in transfected cells; host or cells: CHO-K1
Protocol: as §1, §2, §3

CB1 receptor [3] = biological target: T1, CB1 receptor; experiment: hCB1-mediated stimulation of [35S]GTPγS binding; assay type: biochemical; details: in vitro functional assay
Protocol: (§4) EC50 values in functional assays were also derived from automated nonlinear regression analysis of sigmoidal titration curves using the three-parameter modification of the four-parameter equation.
Chinese hamster ovary cells (CHO-K1), stably transfected with either hCB1 or hCB2, were washed two times with cold PBS, scraped from 500 cm^2 tissue culture plates, and pelleted by centrifugation at 1000×g for 10 min. The supernatant was discarded and the pellet was resuspended in Tris assay buffer (50 mM Tris HCl, pH 7.8, containing 1.0 mM EGTA, 5.0 mM MgCl2, […], and […] aprotinin), homogenized with a Polytron homogenizer (Brinkmann) at a setting of 1 for 20 sec and centrifuged at 38,000×g for 20 min at 4° C. […]
(§5) hCB1-Mediated stimulation of [^35S]GTPγS binding was measured in a mixture containing 100-150 pM [^35S]GTPγS, 150 mM NaCl, 45 mM MgCl2, […], 0.4 mM DTT, 1 mM EGTA, 1 mg/mL fatty acid free BSA, 25 μg of membrane protein and agonist in a total volume of 250 μL of buffer A in 96 well Basic Flashplates (Perkin Elmer). After incubation at room temperature for 2 hours the plates were centrifuged at 800×g at 4° C. for 5 min and the radioactivity bound to the membranes was determined by scintillation spectrometry using the Topcount (Perkin Elmer).

CB2 receptor [4] = biological target: T2, CB2 receptor; experiment: hCB2-mediated [35S]GTPγS binding; assay type: biochemical
Protocol: as §4, §2, §5
hCB2-Mediated [35 S]GTPγS binding was measured in the same way except the assay mixture contained […] and the incubation time was 6 hours. […] After incubation at 30° C. for 2 hours, the plates were centrifuged at 800×g at 4° C. for 5 min and the radioactivity bound to the membrane was determined by scintillation spectrometry using the Topcount (Perkin Elmer).

T1 sequence (P21554 whole entry): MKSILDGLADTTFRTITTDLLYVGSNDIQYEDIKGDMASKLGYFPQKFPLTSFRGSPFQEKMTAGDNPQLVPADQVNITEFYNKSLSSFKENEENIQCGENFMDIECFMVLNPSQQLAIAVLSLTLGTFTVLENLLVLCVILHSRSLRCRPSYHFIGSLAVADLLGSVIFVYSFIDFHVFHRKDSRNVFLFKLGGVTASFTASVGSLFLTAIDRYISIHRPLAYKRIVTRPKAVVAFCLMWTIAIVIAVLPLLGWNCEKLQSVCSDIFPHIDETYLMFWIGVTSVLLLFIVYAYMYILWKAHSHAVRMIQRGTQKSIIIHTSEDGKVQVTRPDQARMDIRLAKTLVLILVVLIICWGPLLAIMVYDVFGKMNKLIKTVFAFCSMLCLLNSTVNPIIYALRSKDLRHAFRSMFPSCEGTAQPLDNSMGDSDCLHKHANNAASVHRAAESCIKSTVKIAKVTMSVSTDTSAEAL
T2 sequence (P34972 whole entry): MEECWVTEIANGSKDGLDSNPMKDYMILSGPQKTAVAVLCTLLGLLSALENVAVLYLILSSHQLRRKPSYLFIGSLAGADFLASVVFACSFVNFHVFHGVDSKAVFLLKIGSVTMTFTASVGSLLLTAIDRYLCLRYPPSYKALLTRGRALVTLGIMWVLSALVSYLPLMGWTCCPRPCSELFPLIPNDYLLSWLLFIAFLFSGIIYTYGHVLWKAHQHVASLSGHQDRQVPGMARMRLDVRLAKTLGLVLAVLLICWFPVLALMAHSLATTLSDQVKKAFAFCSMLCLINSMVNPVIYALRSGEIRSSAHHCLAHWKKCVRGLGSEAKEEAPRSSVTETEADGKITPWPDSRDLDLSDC

Structure (SMILES) | Ki (CB1 receptor [1]) [nM] | Ki (CB2 receptor [2]) [nM] | in vitro CB1 receptor agonist activity (CB1 receptor [3]) | EC50 (CB2 receptor [4]; agonist mode, read-out: in vitro CB2 receptor agonist potency (EC50)) [nM] | IC50 (CB2 receptor [4]; antagonist mode, read-out: in vitro CB2 receptor antagonist potency (IC50)) [nM]
CNc1ccc(C(=O)N[C@@H]2C(C)(C)[C@@H]3CC[C@@]2(C)C3)cc1S(=O)(=O)N(C)C [Compound 1X, 3-(N,N-dimethylsulfamoyl)-4-(methylamino)-N-((1S,2S,4R)-1,3,3-trimethylbicyclo[2.2.1]heptan-2-yl)benzamide] | 1930 | 8.9 | no in vitro CB1 receptor agonist activity | 18.6 | –
COCCNc1ccc(C(=O)NC2C(C)(C)[C@@H]3CC[C@@]2(C)C3)cc1S(=O)(=O)N1CCOCC1 (stereo partly drawn) [Compound 2D, 4-(2-methoxyethylamino)-3-(morpholinosulfonyl)-N-((1S,4R)-1,3,3-trimethylbicyclo[2.2.1]heptan-2-yl)benzamide] | 1310 | 1.6 | – | – | 8.5
